The results in this text go back to ChEMBL document CHEMBL1153049, “Identification of aminoethyl pyrrolo dihydroisoquinolinones as novel poly(ADP-ribose) polymerase-1 inhibitors” (Bioorg Med Chem Lett, 2009).

The source made the active and inactive calls. The rule behind the calls is not given here. A value given as a limit tells only on which side of the number the result lay.

Assay [1] addresses Poly [ADP-ribose] polymerase 1 (Homo sapiens, UniProt P09874).
Description: Inhibition of PARP1 in human HeLa cells by microplate scintillation counting
The target in assay [2] is T1, Protein mono-ADP-ribosyltransferase PARP3 (Homo sapiens) (UniProt Q9Y6F1).
T1 sequence (whole entry): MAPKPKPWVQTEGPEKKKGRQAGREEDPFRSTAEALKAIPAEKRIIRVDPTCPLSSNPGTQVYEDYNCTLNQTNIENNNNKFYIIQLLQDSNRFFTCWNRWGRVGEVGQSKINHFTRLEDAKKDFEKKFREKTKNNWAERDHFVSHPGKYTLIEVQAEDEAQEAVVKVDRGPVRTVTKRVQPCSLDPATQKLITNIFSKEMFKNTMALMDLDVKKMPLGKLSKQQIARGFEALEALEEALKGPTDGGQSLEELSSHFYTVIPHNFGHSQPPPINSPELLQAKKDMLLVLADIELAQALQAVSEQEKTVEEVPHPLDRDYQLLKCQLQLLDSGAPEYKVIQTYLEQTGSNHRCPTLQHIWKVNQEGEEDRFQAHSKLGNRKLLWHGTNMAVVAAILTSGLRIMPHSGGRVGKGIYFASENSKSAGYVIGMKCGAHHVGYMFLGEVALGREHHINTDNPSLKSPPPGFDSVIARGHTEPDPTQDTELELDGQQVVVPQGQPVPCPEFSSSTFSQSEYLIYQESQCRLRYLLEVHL
Kind of assay: Inhibition of human PARP3 up to 500 nM.

Assay [3] deals with Poly [ADP-ribose] polymerase 2 (Homo sapiens, UniProt Q9UGN5). Kind of assay: Inhibition of human PARP2 expressed in baculovirus system.
Assay [4] deals with T2, Poly [ADP-ribose] polymerase tankyrase-1 (Homo sapiens) (UniProt O95271).
T2 sequence (whole entry): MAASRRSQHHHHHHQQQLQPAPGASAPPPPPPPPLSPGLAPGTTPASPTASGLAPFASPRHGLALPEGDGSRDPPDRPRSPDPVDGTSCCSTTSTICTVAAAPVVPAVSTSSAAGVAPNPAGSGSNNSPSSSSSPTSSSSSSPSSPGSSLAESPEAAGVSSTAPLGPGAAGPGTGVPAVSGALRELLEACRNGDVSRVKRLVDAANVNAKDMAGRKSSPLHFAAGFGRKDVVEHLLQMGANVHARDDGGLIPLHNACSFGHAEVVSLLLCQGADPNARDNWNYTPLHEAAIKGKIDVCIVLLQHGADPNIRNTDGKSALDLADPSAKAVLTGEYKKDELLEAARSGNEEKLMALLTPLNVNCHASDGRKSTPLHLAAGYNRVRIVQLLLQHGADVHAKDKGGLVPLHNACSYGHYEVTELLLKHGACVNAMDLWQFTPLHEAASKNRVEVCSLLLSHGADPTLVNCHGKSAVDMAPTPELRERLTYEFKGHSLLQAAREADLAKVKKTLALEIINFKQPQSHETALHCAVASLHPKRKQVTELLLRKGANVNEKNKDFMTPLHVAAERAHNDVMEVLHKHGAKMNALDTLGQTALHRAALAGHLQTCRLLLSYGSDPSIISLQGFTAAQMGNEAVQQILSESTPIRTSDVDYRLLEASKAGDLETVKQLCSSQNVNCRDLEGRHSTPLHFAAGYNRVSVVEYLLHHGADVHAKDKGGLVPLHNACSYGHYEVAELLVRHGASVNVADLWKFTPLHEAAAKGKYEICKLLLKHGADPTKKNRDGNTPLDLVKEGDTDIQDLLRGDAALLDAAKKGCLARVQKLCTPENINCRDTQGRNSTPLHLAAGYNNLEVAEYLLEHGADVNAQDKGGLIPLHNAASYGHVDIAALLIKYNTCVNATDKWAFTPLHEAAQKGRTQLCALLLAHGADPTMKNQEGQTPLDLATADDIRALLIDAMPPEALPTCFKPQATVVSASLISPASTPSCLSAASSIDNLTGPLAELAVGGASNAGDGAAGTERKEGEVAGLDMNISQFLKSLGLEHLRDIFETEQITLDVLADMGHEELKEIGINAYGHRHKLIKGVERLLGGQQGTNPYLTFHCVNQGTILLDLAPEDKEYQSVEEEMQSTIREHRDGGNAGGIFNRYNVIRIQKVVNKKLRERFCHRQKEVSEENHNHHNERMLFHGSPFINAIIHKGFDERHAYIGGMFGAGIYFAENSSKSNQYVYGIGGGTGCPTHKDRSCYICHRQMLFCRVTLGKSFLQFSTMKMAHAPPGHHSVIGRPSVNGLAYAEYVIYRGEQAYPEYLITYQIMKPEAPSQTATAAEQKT
Briefly: Inhibition of human tankyrase 1 catalytic domain expressed in Escherichia coli up to 500 nM.

Assay [5] concerns the target Protein mono-ADP-ribosyltransferase PARP4 (Homo sapiens) (UniProt Q9UKK3). Briefly: Inhibition of human vPARP catalytic domain expressed in Escherichia coli up to 500 nM.

Sequence of Poly [ADP-ribose] polymerase 1 (P09874 whole entry): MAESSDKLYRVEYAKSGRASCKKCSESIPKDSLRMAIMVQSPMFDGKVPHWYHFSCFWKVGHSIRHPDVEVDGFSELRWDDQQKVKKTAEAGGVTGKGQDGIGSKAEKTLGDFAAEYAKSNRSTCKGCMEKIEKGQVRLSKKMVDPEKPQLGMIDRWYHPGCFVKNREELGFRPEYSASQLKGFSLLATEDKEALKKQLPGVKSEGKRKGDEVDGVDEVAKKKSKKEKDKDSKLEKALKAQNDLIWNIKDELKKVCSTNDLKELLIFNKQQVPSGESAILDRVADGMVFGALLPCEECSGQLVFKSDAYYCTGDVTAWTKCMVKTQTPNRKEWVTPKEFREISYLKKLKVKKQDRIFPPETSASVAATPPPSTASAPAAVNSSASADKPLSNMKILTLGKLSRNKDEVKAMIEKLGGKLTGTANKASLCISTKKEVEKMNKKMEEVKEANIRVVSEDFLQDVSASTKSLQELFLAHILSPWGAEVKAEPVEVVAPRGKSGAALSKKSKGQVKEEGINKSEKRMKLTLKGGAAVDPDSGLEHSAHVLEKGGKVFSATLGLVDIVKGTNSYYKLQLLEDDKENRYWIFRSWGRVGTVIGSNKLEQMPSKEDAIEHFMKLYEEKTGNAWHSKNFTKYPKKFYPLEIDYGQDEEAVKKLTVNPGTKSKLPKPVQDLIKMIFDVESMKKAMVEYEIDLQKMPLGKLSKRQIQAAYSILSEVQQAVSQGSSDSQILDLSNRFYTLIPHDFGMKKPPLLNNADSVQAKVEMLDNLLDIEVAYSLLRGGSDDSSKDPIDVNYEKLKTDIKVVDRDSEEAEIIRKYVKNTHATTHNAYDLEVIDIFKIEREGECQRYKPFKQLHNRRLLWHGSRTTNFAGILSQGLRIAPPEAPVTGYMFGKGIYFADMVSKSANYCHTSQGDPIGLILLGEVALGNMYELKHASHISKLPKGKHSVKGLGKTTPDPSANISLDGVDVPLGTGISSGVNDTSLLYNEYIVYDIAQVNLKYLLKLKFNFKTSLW
Sequence of Poly [ADP-ribose] polymerase 2 (Q9UGN5 whole entry): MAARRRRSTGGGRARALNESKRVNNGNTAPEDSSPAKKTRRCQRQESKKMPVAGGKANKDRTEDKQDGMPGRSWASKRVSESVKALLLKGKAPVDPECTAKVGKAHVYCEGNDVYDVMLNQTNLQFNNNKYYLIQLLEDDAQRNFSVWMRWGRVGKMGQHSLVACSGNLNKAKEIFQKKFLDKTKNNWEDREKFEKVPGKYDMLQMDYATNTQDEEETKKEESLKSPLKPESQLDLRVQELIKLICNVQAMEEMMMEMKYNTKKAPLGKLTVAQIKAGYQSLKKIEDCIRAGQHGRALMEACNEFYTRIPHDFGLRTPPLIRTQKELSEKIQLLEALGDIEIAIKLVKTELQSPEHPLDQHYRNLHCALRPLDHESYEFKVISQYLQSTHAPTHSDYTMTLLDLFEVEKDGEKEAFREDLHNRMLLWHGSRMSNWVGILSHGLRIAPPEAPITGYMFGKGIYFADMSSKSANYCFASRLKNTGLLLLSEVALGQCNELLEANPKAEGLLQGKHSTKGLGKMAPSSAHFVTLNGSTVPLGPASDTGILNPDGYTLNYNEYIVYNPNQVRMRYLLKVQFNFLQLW
Sequence of Protein mono-ADP-ribosyltransferase PARP4 (Homo sapiens) (Q9UKK3 whole entry, the tested form may be a part): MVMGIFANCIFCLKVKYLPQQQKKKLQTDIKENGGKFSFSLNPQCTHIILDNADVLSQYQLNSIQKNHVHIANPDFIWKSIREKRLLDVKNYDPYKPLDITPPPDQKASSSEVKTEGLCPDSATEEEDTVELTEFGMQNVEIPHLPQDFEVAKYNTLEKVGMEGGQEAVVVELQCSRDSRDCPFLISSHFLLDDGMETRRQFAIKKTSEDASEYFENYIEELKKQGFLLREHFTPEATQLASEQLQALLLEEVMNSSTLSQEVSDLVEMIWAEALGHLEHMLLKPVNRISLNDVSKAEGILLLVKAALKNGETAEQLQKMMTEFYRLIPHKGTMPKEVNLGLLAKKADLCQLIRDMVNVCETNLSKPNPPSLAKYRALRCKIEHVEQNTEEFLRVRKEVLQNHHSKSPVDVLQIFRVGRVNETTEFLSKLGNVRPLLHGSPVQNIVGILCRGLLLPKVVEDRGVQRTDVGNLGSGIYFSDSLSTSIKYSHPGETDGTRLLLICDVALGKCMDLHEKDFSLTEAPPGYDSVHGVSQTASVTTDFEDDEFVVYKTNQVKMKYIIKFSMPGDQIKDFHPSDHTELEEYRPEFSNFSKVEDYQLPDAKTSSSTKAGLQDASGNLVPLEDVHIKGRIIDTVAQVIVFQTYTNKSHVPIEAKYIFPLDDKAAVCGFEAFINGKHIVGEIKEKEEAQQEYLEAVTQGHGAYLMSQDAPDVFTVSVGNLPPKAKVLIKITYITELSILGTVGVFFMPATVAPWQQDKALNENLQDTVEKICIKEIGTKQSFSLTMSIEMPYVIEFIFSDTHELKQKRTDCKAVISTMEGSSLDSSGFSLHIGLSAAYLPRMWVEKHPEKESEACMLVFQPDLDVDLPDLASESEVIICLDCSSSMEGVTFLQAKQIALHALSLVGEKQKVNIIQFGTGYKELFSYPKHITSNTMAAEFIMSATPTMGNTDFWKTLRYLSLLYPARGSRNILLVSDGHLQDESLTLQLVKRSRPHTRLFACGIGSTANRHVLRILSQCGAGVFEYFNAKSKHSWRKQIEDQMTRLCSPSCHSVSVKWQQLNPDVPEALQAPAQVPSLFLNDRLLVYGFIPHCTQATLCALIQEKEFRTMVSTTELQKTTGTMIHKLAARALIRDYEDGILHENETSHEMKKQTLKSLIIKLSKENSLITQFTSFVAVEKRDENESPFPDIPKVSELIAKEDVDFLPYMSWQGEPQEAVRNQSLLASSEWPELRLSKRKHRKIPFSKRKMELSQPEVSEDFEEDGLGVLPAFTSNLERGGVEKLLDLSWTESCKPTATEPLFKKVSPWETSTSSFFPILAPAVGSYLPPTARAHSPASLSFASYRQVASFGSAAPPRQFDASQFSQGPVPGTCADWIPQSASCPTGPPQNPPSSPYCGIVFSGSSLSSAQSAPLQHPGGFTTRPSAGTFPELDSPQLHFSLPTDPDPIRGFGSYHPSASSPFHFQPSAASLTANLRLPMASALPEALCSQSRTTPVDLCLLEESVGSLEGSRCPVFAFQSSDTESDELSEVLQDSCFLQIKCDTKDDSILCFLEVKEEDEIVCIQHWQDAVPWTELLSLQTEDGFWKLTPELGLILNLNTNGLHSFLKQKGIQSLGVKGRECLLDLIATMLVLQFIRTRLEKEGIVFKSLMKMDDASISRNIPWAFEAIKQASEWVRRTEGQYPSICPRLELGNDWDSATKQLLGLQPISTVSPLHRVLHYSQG

For orientation: IC50 means the concentration at which inhibition is half-maximal. For the compound `Cn1cc(CNCCc2c[nH]c3ccc4c(c23)CCNC4=O)cn1`, the IC50 in assay [1] was greater than 0.5 µM.

As to `O=C1NCCc2c1ccc1[nH]cc(CCNC(=O)N3CCNCC3)c21`, the inhibition entry in assay [2], in assay [4] and in assay [5] was “inactive” each time. In addition, the IC50 in assay [3] was 0.032 µM; in assay [1], 0.025 µM.

`O=C1NCCc2c1ccc1[nH]cc(CCNCc3cccc4cccnc34)c21` had an IC50 in assay [1] greater than 0.5 µM.

Turning to `O=C1NCCc2c1ccc1[nH]cc(CCNC(=O)N3CCCNCC3)c21`, the inhibition result in assay [2], in assay [4] and in assay [5] was “inactive” throughout. Also, the figures for the concentration for half-maximal inhibition (IC50) in assay [3] and in assay [1] were 0.017 µM and 0.027 µM, respectively.
